Literature values in patent US20240251900A1, “PATCH FOR TARGETED DELIVERY OF HAIR COMPOSITION AND METHOD FOR APPLYING SAME” (Better Not Younger Corporation, priority 2022, published 2024).

Test system: hair follicle
Conditions: Capixyl techsheet page 38

## acetyl tetrapeptide-3
  stimulation of hair growth versus market reference Minoxidil: stimulate hair growth better than the market reference, Minoxidil
